{"source": "patent US6693126B2", "about": "“Dihydroxyphenyl derivatives for hepatoprotection and treatment of liver diseases” (Choongwae Pharm. Co., Ltd., priority 2000, dated 2004)", "key": {"[1]": {"tested_on": "Fulminant Liver Injuries caused by D-galactosamine/lipopolysaccharide in Mice", "experiment": "Inhibitory effect against fulminant liver injuries caused by D-galactosamine/lipopolysaccharide in mice (survival)", "type": "in vivo, Mice (ICR, male)", "settings": "D-galactosamine 800 mg/kg + lipopolysaccharide 10 μg/kg i.p., dose 50 mg/kg oral once, observed 24 hours", "excerpt": "Further, the D-galactosamine/lipopolysaccharide model(see, Chris Galanos et al., Proc. Natl. Acad. Sci. USA, 76, 11, 5939-5943, 1979; Koji Hase et al., Biol. Pharm. Bull., 20, 4, 381-385, 1997; Junichi Nagakawa et al., The Journal of Pharmacology and Experimental Therapeutics, 264, 1, 1992; Nolan J. D., Hepatology, 1, 458-465, 1981; Wendel A., Methods Enzymol., 186, 675-680, 1990) which is also used in the present invention for the identification of hepatoprotective effect is based on the phenomena that liver injuries are caused by immune responses in mouse. It has been reported that such kind of liver injuries are caused not by direct tissue lesions due to the chemicals but by secretion of tumor necrosis factor(TNF)-α, reactive oxygen, etc.(see, Hishinuma I. et al., Hepatology, 12, 1187-1191, 1990, Hase K. et al., Phytother. Res., 10, 387-392, 1996). Here, D-galactosamine supresses protein biosynthesis and as well highly increases the sensitivity of the liver cells for lipopolysaccharide by reducing uridine nucleotide.\nThe hepatoprotective effect of the compound of the present invention was identified according to a known procedure(see, Koji Hase et al., Biol. Pharm. Bull., 20, 4, 381-385, 1997), and the protocol may be described in brief as follows.\n(§1) Mice(ICR, male, 27˜35 g) as the test animal were allowed in a condition of temperature 22±1° C. and relative humidity 60±5%. Feed and water were provided with no restriction while light and darkness were changed at an interval of 12 hours.\nThe compound of the present invention was suspended in a solvent corn oil, and this suspension was administered in a dose of 10 ml/kg. Each group included 10 test animals, and the test compound was orally administered once per animal. After 1 hour from the administration of the test compound, D-galactosamine and lipopolysaccharide each of which dissolved in physiological saline were intraperitoneally injected at the same time in doses of 800 mg/kg and 10 μg/kg, respectively. As the control compounds, SY-640[N-methyl-N-(3,4-methylenedioxyphenacyl)acetamide; EP0350251], silymarin and DDB were selected.\nThe statistical significance for the test result of each group was examined based on Student's t-test, and the result was recognized as having a statistical significance when its P value is less than 5%."}, "[2]": {"tested_on": "Liver Injuries caused by Carbon Tetrachloride in Rats", "experiment": "Inhibitory effect against liver injuries caused by carbon tetrachloride in rats", "type": "in vivo, Rats (SD, male)", "settings": "CCl4 i.p., serum 24 h", "excerpt": "(§2) The carbon tetrachloride model(see, Philippe letteron et al., Biochemical Pharmacology, 39, 12, 2027-2034, 1990; Tips, 10, 1989; Kyoichi Kagawa et al., Japan J. Pharmacol., 42, 19-26, 1986; K. T. Liu and P. Lesca, Chem. Biol. Interactions, 41, 39-47, 1982; Richard O. et al., J. Biological Chemistry, 236, 2, 1961) is used most generally. This model has been established based on the internal phenomena that carbon tetrachloride is converted by cytochrome P-450 to a toxic free radical trichloromethyl(CCl3.), this radical is strongly bound to a thiol group of membrane protein on microsome of liver to form a lipid radical, which is then converted to a peroxy radical in the presence of oxygen to facilitate the peroxidation reaction of membrane lipid. That is, carbon tetrachloride suppresses protein biosynthesis in the liver, induces the increase of ALT and AST values in blood, and further causes histologically the centrilobular necrosis of the liver.\n(§3) The degree of liver damage in the experimental animals was determined by measuring ALT and AST values in blood(see, Biol. Pharm. Bull., 20, 4, 381-385, 1997; Toxicology and Applied Pharmacology, 95, 1-11, 1988), and the hepatoprotective activity was calculated based on the following formula(see, Planta Medica, 55, 127-132, 1989). At this time, the hepatoprotective activity can also be calculated based on the same formula by replacing ALT value with AST value. [formula]\n(§4) The hepatoprotective effect of the compound of the present invention was identified according to a known procedure(see, Philippe letteron et al., Biochemical Pharmacology, 39, 12, 2027-2034, 1990), and the protocol may be described in brief as follows.\n(§5) Rats(SD, male, 180˜200 g) and mice(ICR, male, 27-35 g) used in the test were allowed in a condition of temperature 22±1° C. and relative humidity 60±5%. Feed and water were provided with no restriction while light and darkness were changed at an interval of 12 hours.\n(§6) […] […] Each group included 8 test animals, and the test compound was orally administered once per animal. After 30 minutes(rat) or 1 hour(mouse) from the administration of the test compound, 10% carbon tetrachloride in corn oil solution was intraperitoneally injected in doses of 2 ml/kg in rats and 0.15 ml/kg in mice. As the control compounds, silymarin and DDB were selected.\n(§7) The test animals were provided with no feed and sufficient water for 24 hours from the administration of carbon tetrachloride. […] This blood was centrifuged to obtain sera. ALT and AST values in the sera were measured using blood chemistry analyzer(Vitalab, Selectra II, Merck). The statistical significance for the test result of each group was examined based on Student's t-test, and the result was recognized as having a statistical significance when its P value is less than 5%."}, "[3]": {"tested_on": "Liver Injuries caused by Thioacetamide in Mice", "experiment": "Inhibitory effect against liver injuries caused by thioacetamide in mice", "type": "in vivo, Mice (ICR, male)", "settings": "thioacetamide i.p., dose 50 mg/kg p.o. once, serum 24 h", "excerpt": "The hepatoprotective effect of the compound of formula (1) was also identified by thioacetamide model(see, Masuda Yasusuke and Nakayama Nobue, Biochemical Pharmacology, 31, 17, 2713-2725, 1982; Liu Jie et al., Acta Pharmacologica Sinica, 16, 2, 97-102, 1995; Story D. L. et al., J. Tox. Environ. Health, 11, 483-501, 1983; Gomez-Lechon M. J. et al., Xenobiotica, 18, 6, 725-735, 1988) which is frequently used as an experimental model for liver injuries. This model has been established based on the phenomena that thioacetamide activated by P-450 S-oxidation inordinately increases the influx of calcium ion(Ca^++) into the liver cells, which in turn activates calcium ion-dependent phospholipase, protease and endonuclease, changes the cell frame through the calcium ion, exhausts ATP, and consequently destroys the liver cells. Thioacetamide also damages ureogenesis pathway in liver, and the metabolite of thioacetamide inhibits the transfer of RNA and makes the liver cell membranes unstable. A series of these activities results in the destruction of the liver cells, which in turn causes the increase of ALT and AST values in blood and also causes histologically the centrilobular necrosis.\nas §3\nThe hepatoprotective effect of the compound of the present invention was identified according to a known procedure(see, Landon, E. J. et al., Biochemical Pharmacology, 35, 4, 697-705, 1986), and the protocol may be described in brief as follows.\nas §1\nThe compound of the present invention was suspended in a solvent corn oil, and this suspension was administered in a dose of 10 ml/kg. Each group included 8 test animals, and the test compound was orally administered once per animal. After 1 hour from the administration of the test compound, thioacetamide solution(concentration: 90 mg/ml) in physiological saline was intraperitoneally injected in a dose of 1 ml/kg. As the control compounds, silymarin and DDB were selected.\nas §7, with “thioacetamide.” for “carbon tetrachloride.”"}, "[4]": {"tested_on": "Liver Injuries caused by Carbon Tetrachloride in Mice", "experiment": "Inhibitory effect against liver injuries caused by carbon tetrachloride in mice", "type": "in vivo, mice (ICR, male)", "settings": "CCl4 i.p., serum 24 h", "excerpt": "as §2, §3, §4, §5, §6, §7"}}}
{"molecule": "CC(=O)N(C)CC(=O)c1ccc2c(c1)OCO2", "note": "[SY-640, N-methyl-N-(3,4-methylenedioxyphenacyl)acetamide, reference compound]", "values": [{"measurement": "Survival Rate (%)", "setting": "[1]", "result": 90, "unit": "%"}]}
{"molecule": "C(=N\\OCc1ccccn1)/c1ccc2c(c1)OCO2", "note": "[Compound 9, 1-[(2-pyridyl)methoxy]-1-aza-2-benzo[3,4-d]1,3-dioxolan-5-ylethene]", "values": [{"measurement": "Survival Rate (%)", "setting": "[1]", "result": 90, "unit": "%"}, {"measurement": "Inhibitory Effect against Liver Injuries (%) ALT", "setting": "[2]; dose 1.9 mg/kg p.o. once", "result": 61, "unit": "%"}, {"measurement": "Inhibitory Effect against Liver Injuries (%) ALT", "setting": "[2]; dose 5.6 mg/kg p.o. once", "result": 60, "unit": "%"}, {"measurement": "Inhibitory Effect against Liver Injuries (%) ALT", "setting": "[2]; dose 16.7 mg/kg p.o. once", "result": 56, "unit": "%"}, {"measurement": "Inhibitory Effect against Liver Injuries (%) ALT", "setting": "[2]; dose 50 mg/kg p.o. once", "result": 75, "unit": "%"}, {"measurement": "Inhibitory Effect against Liver Injuries (%) ALT", "setting": "[3]", "result": 29, "unit": "%"}, {"measurement": "Inhibitory Effect against Liver Injuries (%) ALT", "setting": "[4]; dose 1.9 mg/kg p.o. once", "result": 64, "unit": "%"}, {"measurement": "Inhibitory Effect against Liver Injuries (%) ALT", "setting": "[4]; dose 5.6 mg/kg p.o. once", "result": 64, "unit": "%"}, {"measurement": "Inhibitory Effect against Liver Injuries (%) ALT", "setting": "[4]; dose 16.7 mg/kg p.o. once", "result": 87, "unit": "%"}, {"measurement": "Inhibitory Effect against Liver Injuries (%) ALT", "setting": "[4]; dose 50 mg/kg p.o. once", "result": 98, "unit": "%"}]}
